From patent EP4389751A1, “HETEROCYCLIC COMPOUNDS AND USES THEREOF” (Kumquat Biosciences Inc., priority 2021, dated 2024)
pIC50: −log10 of the molar value. Read-outs that look alike come from different tables or passages of the source.

Experiments:
[1] = molecular target: T1, K-Ras G12S (Homo sapiens, UniProt P01116, G12S); test: HTRF assay of the K-Ras / SOS1 interaction; type: biochemical; details: IC50 (against K-Ras G12D) to IC50 (against K-Ras G12S)
T1 construct: made in house; host or cells: E. coli (e.g., BL21 (DE3))
T1 sequence (P01116 1-188 isoform P01116-2 G12S): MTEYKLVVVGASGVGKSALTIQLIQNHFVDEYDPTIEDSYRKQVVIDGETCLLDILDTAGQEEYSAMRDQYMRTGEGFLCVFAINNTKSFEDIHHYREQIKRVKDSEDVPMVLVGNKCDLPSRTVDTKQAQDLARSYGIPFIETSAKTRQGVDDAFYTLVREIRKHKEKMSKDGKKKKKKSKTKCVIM
Outline: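 Compounds (duplicates, 10 µM to 0.01 µM) were incubated ≥~10 min with Eu-labelled GST-K-Ras G12S and XL665-labelled His-hSOS1 in HEPES pH 7.4 buffer containing NaCl, DTT, BSA and Igepal. Disruption measured as HTRF emission ratio 665/620 nm, fitted to IC50.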

[2] = tested on: GP2D cells; test: Cell proliferation assay (CellTiter-Glo), K-Ras G12D cells; type: cell-based; details: read-out: Inhibition of GP2D Cells (IC50)
Outline: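 CellTiter-Glo luminescence, taken roughly 5 days after dosing, measured growth of G12D-mutant GP2D cells in DMEM/2 mM glutamine/10% FBS. Compound dilution series (e.g., 9 points, 3-fold) added the day after plating. Four-parameter fitting gave IC50.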

[3] = tested on: A549 cells; test: Cell proliferation assay (CellTiter-Glo), K-Ras G12S cells; type: cell-based; details: Homo sapiens
Procedure: A549 (ATCC CRL-185) and LS123 (ATCC CRL-255) cell lines comprise a G12S mutation and can be used to assess Ras cellular signaling in vitro, e.g., in response to the compounds herein. A549 culture medium is prepared with RPMI-1640 and 10% heat-inactivated FBS. LS123 culture medium is prepared with RPMI-1640 and 10% heat-inactivated FBS. A CellTiter-Glo (CTG) luminescent based assay (Promega) is used to assess growth of the cells, as a measurement of the ability of the compounds herein to inhibit Ras signaling in the cells. The cells (e.g., 800 per well) are seeded in their respective culture medium in standard tissue culture-treated 384-well format plates (Falcon #08-772-116) or ultra-low attachment surface 384-well format plates (S-Bio # MS-9384WZ). The day after plating, cells are treated with a dilution series (e.g., a 10 point 3-fold dilution series) of the compounds herein (e.g., approximately 40 µl final volume per well). Cell viability can be monitored (e.g., approximately 6 days later) according to the manufacturer's recommended instructions, where the CellTiter-Glo reagent is added (e.g., approximately 10 µl), vigorously mixed, covered, and placed on a plate shaker (e.g., approximately for 20 min) to ensure sufficient cell lysis prior to assessment of luminescent signal. The IC50 values are determined using the four parameter fit. The resulting IC50 value is a measurement of the ability of the compounds herein to reduce cell growth of Ras-driven cells (e.g., tumor cell lines) in vitro and/or in vivo.

[4] = A549, read-out: Inhibition of A549 Cells (IC50)
[5] = A549, A549 cells (K-Ras G12S), bin 500 nM to 5 µM, read-out: Inhibition of A549 Cells (IC50)
[6] = A549, A549 cells (K-Ras G12S), bin ≤ 500 nM, read-out: Inhibition of A549 Cells (IC50)

SMILES	Ratio of IC50 KRAS G12D vs. IC50 KRAS G12S [1]	pIC50 ([2]; GP2d)	pIC50 [3, 4]	pIC50 ([2]; GP2D cells (K-Ras G12D))	pIC50 [3, 5]	pIC50 [3, 6]
Cc1ncn(C(=O)N2C3CCC2CN(c2nc(OC[C@@]45CCCN4C[C@H](F)C5)nc4c(F)c(-c5ccc(F)c6sc(N)c(C#N)c56)c(Cl)cc24)C3)n1 [Compound A186, 2-amino-4-(6-chloro-8-fluoro-2-(((2R,7aS)-2-fluorotetrahydro-1H-pyrrolizin-7a(5H)-yl)methoxy)-4-(8-(3-methyl-1H-1,2,4-triazole-1-carbonyl)-3,8-diazabicyclo[3.2.1]octan-3-yl)quinazolin-7-yl)-7-fluorobenzo[b]thiophene-3-carbonitrile]	A (A: indicates that the ratio of IC50 against KrasG12D vs. IC50 against KrasG12S is 1-fold or greater)	≥ 6.00	5.30 to 6.30	–	–	–
N#Cc1ccn(C(=O)N2C3CCC2CN(c2nc(OC[C@@]45CCCN4C[C@H](F)C5)nc4c(F)c(-c5ccc(F)c6sc(N)nc56)c(Cl)cc24)C3)n1 [Compound A245, 1-(3-(7-(2-amino-7-fluorobenzo[d]thiazol-4-yl)-6-chloro-8-fluoro-2-(((2R,7aS)-2-fluorotetrahydro-1H-pyrrolizin-7a(5H)-yl)methoxy)quinazolin-4-yl)-3,8-diazabicyclo[3.2. 1]octane-8-carbonyl)-1H-pyrazole-3-carbonitrile]	A (A: indicates that the ratio of IC50 against KrasG12D vs. IC50 against KrasG12S is 1-fold or greater)	–	–	≥ 6.00	5.30 to 6.30	–
Nc1nc2c(-c3c(Cl)cc4c(N5CC6CCC(C5)N6C(=O)n5ccnn5)nc(OC[C@@]56CCCN5C[C@H](F)C6)nc4c3F)ccc(F)c2s1 [Compound A153, (3-(7-(2-amino-7-fluorobenzo[d]thiazol-4-yl)-6-chloro-8-fluoro-2-(((2R,7aS)-2-fluorotetrahydro-1H-pyrrolizin-7a(5H)-yl)methoxy)quinazolin-4-yl)-3,8-diazabicyclo[3.2.1]octan-8-yl)(1H-1,2,3-triazol-1-yl)methanone]	A (A: indicates that the ratio of IC50 against KrasG12D vs. IC50 against KrasG12S is 1-fold or greater)	≥ 6.00	5.30 to 6.30	–	–	–
N#Cc1c(N)sc2c(F)ccc(-c3c(Cl)cc4c(N5CCC6C5CCN6C(=O)n5cncn5)nc(OC[C@@]56CCCN5C[C@H](F)C6)nc4c3F)c12 (stereo partly drawn) [Compound A108, 4-(4-(4-(1H-1,2,4-triazole-1-carbonyl)hexahydropyrrolo[3,2-b]pyrrol-1(2H)-yl)-6-chloro-8-fluoro-2-(((2R,7aS)-2-fluorotetrahydro-1H-pyrrolizin-7a(5H)-yl)methoxy)quinazolin-7-yl)-2-amino-7-fluorobenzo[b]thiophene-3-carbonitrile]	A (A: indicates that the ratio of IC50 against KrasG12D vs. IC50 against KrasG12S is 1-fold or greater)	–	–	≥ 6.00	–	≥ 6.30
Nc1nc2c(-c3c(Cl)cc4c(N5C[C@H]6CC[C@@H](C5)N6C(=O)Nc5ccncn5)nc(OC[C@@]56CCCN5C[C@H](F)C6)nc4c3F)ccc(F)c2s1 [Compound A223, (1R,5S)-3-(7-(2-amino-7-fluorobenzo[d]thiazol-4-yl)-6-chloro-8-fluoro-2-(((2R,7aS)-2-fluorotetrahydro-1H-pyrrolizin-7a(5H)-yl)methoxy)quinazolin-4-yl)-N-(pyrimidin-4-yl)-3,8-diazabicyclo[3.2. 1]octane-8-carboxamide]	A (A: indicates that the ratio of IC50 against KrasG12D vs. IC50 against KrasG12S is 1-fold or greater)	≥ 6.00	5.30 to 6.30	–	–	–
N#Cc1c(N)sc2c(F)ccc(-c3c(Cl)cc4c(N5CC6CCC(C5)N6C(=O)n5cc(C(F)(F)F)cn5)nc(OC[C@@]56CCCN5C[C@H](F)C6)nc4c3F)c12 [Compound A122, 2-amino-4-(6-chloro-8-fluoro-2-(((2R,7aS)-2-fluorotetrahydro-1H-pyrrolizin-7 a(5H)-yl)methoxy)-4-(8-(4-(trifluoromethyl)-1H-pyrazole-1-carbonyl)-3,8-diazabicyclo[3.2.1]octan-3-yl)quinazolin-7-yl)-7-fluorobenzo[b]thiophene-3-carbonitrile]	A (A: indicates that the ratio of IC50 against KrasG12D vs. IC50 against KrasG12S is 1-fold or greater)	–	–	≥ 6.00	5.30 to 6.30	–
N#Cc1c(N)sc2c(F)ccc(-c3c(Cl)cc4c(N5CC6CCC(C5)N6C(=O)n5cncn5)nc(OC[C@@]56CCCN5C[C@H](F)C6)nc4c3F)c12 [Compound A260, 4-(4-(8-(1H-1,2,4-triazole-1-carbonyl)-3,8-diazabicyclo[3.2.1]octan-3-yl)-6-chloro-8-fluoro-2-(((2R,7aS)-2-fluorotetrahydro-1H-pyrrolizin-7a(5H)-yl)methoxy)quinazolin-7-yl)-2-amino-7-fluorobenzo[b]thiophene-3-carbonitrile]	A (A: indicates that the ratio of IC50 against KrasG12D vs. IC50 against KrasG12S is 1-fold or greater)	–	–	≥ 6.00	–	≥ 6.30
Cc1nc(C)n(C(=O)N2CC3(CCCN(c4nc(OC[C@@]56CCCN5C[C@H](F)C6)nc5c(F)c(-c6ccc(F)c7sc(N)c(C#N)c67)c(Cl)cc45)C3)C2)n1 [Compound A190, 2-amino-4-(6-chloro-4-(2-(3,5-dimethyl-1H-1,2,4-triazole-1-carbonyl)-2,6-diazaspiro[3.5]nonan-6-yl)-8-fluoro-2-(((2R,7aS)-2-fluorotetrahydro-1H-pyrrolizin-7a(5H)-yl)methoxy)quinazolin-7-yl)-7-fluorobenzo[b]thiophene-3-carbonitrile]	A (A: indicates that the ratio of IC50 against KrasG12D vs. IC50 against KrasG12S is 1-fold or greater)	–	–	5.00 to 6.00	5.30 to 6.30	–
Nc1nc2c(-c3c(Cl)cc4c(N5CC6CCC(C5)N6C(=O)n5ccnc5)nc(OC[C@@]56CCCN5C[C@H](F)C6)nc4c3F)ccc(F)c2s1 [Compound A289, (3-(7-(2-amino-7-fluorobenzo[d]thiazol-4-yl)-6-chloro-8-fluoro-2-(((2R,7aS)-2-fluorotetrahydro-1H-pyrrolizin-7a(5H)-yl)methoxy)quinazolin-4-yl)-3,8-diazabicyclo[3.2.1]octan-8-yl)(1H-imidazol-1-yl)methanone]	A (A: indicates that the ratio of IC50 against KrasG12D vs. IC50 against KrasG12S is 1-fold or greater)	–	–	≥ 6.00	5.30 to 6.30	–
C#Cc1c(F)ccc2cc(O)cc(-c3ncc4c(N5CCOCC6(CN(C(=O)n7cncn7)C6)C5)nc(OC[C@@]56CCCN5C[C@H](F)C6)nc4c3F)c12 [Compound A158, (9-(7-(8-ethynyl-7-fluoro-3-hydroxynaphthalen-1-yl)-8-fluoro-2-(((2R,7aS)-2-fluorotetrahydro-1H-pyrrolizin-7a(5H)-yl)methoxy)pyrido[4,3-d]pyrimidin-4-yl)-6-oxa-2,9-diazaspiro[3.6]decan-2-yl)(1H-1,2,4-triazol-1-yl)methanone]	A (A: indicates that the ratio of IC50 against KrasG12D vs. IC50 against KrasG12S is 1-fold or greater)	–	–	5.00 to 6.00	5.30 to 6.30	–
Nc1nc2c(-c3c(Cl)cc4c(N5CC6CCC(C5)N6C(=O)n5ccnc5Cl)nc(OC[C@@]56CCCN5C[C@H](F)C6)nc4c3F)ccc(F)c2s1 [Compound A242, (3-(7-(2-amino-7-fluorobenzo[d]thiazol-4-yl)-6-chloro-8-fluoro-2-(((2R,7aS)-2-fluorotetrahydro-1H-pyrrolizin-7a(5H)-yl)methoxy)quinazolin-4-yl)-3,8-diazabicyclo[3.2.1]octan-8-yl)(2-chloro-1H-imidazol-1-yl)methanone]	A (A: indicates that the ratio of IC50 against KrasG12D vs. IC50 against KrasG12S is 1-fold or greater)	–	–	≥ 6.00	5.30 to 6.30	–
